This is an account of results in paper PMC5372468, “Quantitative analysis of molecular partition towards lipid membranes using surface plasmon resonance” (Scientific Reports, 2017).

Data set [1] is described as follows: SPR membrane partition on L1 sensor chip, deposited POPC SUV (steady-state and dissociation models). In kind it is physicochemical. The settings on record: 10 mM HEPES, 150 mM NaCl, pH 7.4, 25 °C; for Kp (Steady-state Model) / σ (molar lipid:solute ratio at membrane saturation, Steady-state Model): SPR Biacore X100, L1 chip, association 200 s at 5 μL/min, ±SD, three independent replicates; for Kp (Steady-state Model): POPC SUV (50 nm extrusion), 0.25-700 μM solute, equation (S22) fitted to RUS/RUL vs [S]W, full concentration range; for σ (molar lipid:solute ratio at membrane saturation, Steady-state Model) / Kp (linear partition model, equation (S23)): POPC SUV; for σ (molar lipid:solute ratio at membrane saturation, Steady-state Model): equation (S22); for Kp (linear partition model, equation (S23)): SPR, L1 chip, equation (S23) fitted to the low-concentration linear region only. How it is done:
Lyophilized ENF and KTP were solubilized in 10 mM HEPES, 150 mM NaCl, pH 7.4 buffer to a 1 mg/mL stock solution concentration. Purified F63 stock solutions (~1 mg/mL) were prepared in the same buffer. Lyophilized HRC4 was first solubilized in DMSO to 40 mg/mL, then diluted in 10 mM HEPES, 150 mM NaCl, pH 7.4 buffer for the experiments. The final DMSO content was maintained at 2% (v/v) in all HRC4 experiments. ENF, KTP and HRC4 stock solutions were sonicated in an ultrasonic bath for a 10 min period.
Small unilamellar vesicles (SUV) suspensions were prepared as described before. Briefly, the lipid mixture was dissolved in chloroform in a round bottom flask. Chloroform was evaporated under a constant nitrogen flow. The resulting lipid film was dried in vacuum, overnight. A multilamellar vesicle suspension (MLV) was obtained after lipid film rehydration with 10 mM HEPES, 150 mM NaCl, pH 7.4 buffer and a series of 10 freeze/thaw cycles. MLV suspensions were extruded through a 50 nm track-etched polycarbonate membrane from Whatman/GE Healthcare (Maidstone, United Kingdom). Extrusion was performed in a LiposoFast-Basic plus Stabilizer setup from Avestin (Mannheim, Germany). POPC, POPC:Chol (2:1), POPC:Chol:SM […] and POPC:DPPC (1:1) mixtures were prepared. SUV hydrodynamic diameter (DH) and sample polydispersity were characterized through dynamic light scattering (DLS, Supplementary Fig. S1).
SPR experiments were carried out in a Biacore X100 apparatus from GE Healthcare. Temperature was set at 25 °C for all experiments. A 10 mM HEPES, 150 mM NaCl, pH 7.4 solution was used as running buffer for F63, ENF and KTP experiments. Alternatively, 10 mM HEPES, 150 mM NaCl, pH 7.4 containing 2% (v/v) DMSO was used for HRC4 experiments. The flow system was primed three times before initiating an experiment. The L1 sensor chip was used in all experiments. The sensor chip surface was rinsed with three injections of 20 mM CHAPS before SUV deposition. 1 mM lipid SUV samples were injected over the L1 sensor chip for 2400 s, at a 2 μL/min flow speed. Typical RU values for POPC, POPC:Chol (2:1), and POPC:Chol:SM (1:1:1) SUV depositions were ~8000, ~10000 and ~10500, respectively. Loose vesicles were removed with a 36 s injection of 10 mM NaOH at 50 μL/min. F63, ENF and KTP at defined concentrations (between 0.25 and 700 μM) were injected over pre-formed lipid vesicle-coated surfaces at 5 μL/min, for a total of 200 s (association phase). Samples were also injected at 30 μL/min to confirm the absence of mass transfer effects. Solutes were allowed to dissociate for 800 s. L1 sensor chip surface regeneration was performed with sequential injections of 20 mM CHAPS (5 μL/min for 60 s), 0.5% (w/v) SDS (5 μL/min for 60 s), 10 mM NaOH containing 20% (v/v) methanol (50 μL/min for 36 s) and 10 mM NaOH (50 μL/min for 36 s). Baseline response values were compared before and after each experiment to evaluate the effectiveness of the surface regeneration.
Raw SPR sensorgram data were collected for both lipid deposition and solute binding. SUV deposition response values were collected from sensorgrams upon reaching a stable response. For each studied molecule, association steady-state response values were collected from individual sensorgrams at t = 200 s. Dissociation response data were collected between 200 and 1000 s of each sensorgram.
The steady-state model is a mathematical approach to rigorously quantify solute membrane partition using current SPR lipid bilayer-solute association response data. The partition formalism of equation (S22), can be directly fitted to RUS/RUL vs [S]W data sets to retrieve Kp and σ values. While σ values are very important for specific applications (membrane-targeting antibiotics, for instance[25]), Kp is a fundamental membrane interaction parameter studied for both endogenous and therapeutic molecules. […]
A general note: In SPR one partner is held on a chip, and binding of the other changes the refractive index at the surface.

For data set [2] the following is noted: partition constant towards POPC membranes, fluorescence spectroscopy, 100 nm-diameter LUV, ±SD, cited from earlier work.
The conditions of data set [3]: data previously obtained; ref [25]; cited from earlier work. The source says:
If only Kp is desired, a simplified version of the steady-state model (equation (S23)) can be applied to the linear region in each partition plot (Fig. 2, right panel insets). We applied the steady-state model in full to determine σ for each molecule in addition to Kp. […] The σ of ENF and KTP were, respectively, 50 and 69.

Where “and” joins values, the source holds several entries; their conditions need not be identical. Equal entries are not always repeated. Where two headings read alike, the source gives them in different places.

With Enfuvirtide, in data set [1], the “Kp (Steady-state Model)” value is 6.41 × 10^3 and 6.41 (±0.50) × 10^3; the “σ (molar lipid:solute ratio at membrane saturation, Steady-state Model)” value is ~50 and 50 and 50.4 (±2.0); the “Kp (linear partition model, equation (S23))” value is 5.29 × 10^3. For the same molecule, the “Kp (Literature)” value in data set [2] (ref [26]) is 3.20 × 10^3 and 3.20 (±0.20) × 10^3.
For the molecule `N=C(N)NCCC[C@H](NC(=O)[C@@H](N)Cc1ccc(O)cc1)C(=O)O` [KTP, kyotorphin], in data set [1], the “Kp (Steady-state Model)” value was 0.10 × 10^3 and 0.10 (±0.01) × 10^3; the “σ (molar lipid:solute ratio at membrane saturation, Steady-state Model)” value is ~69 and 69 and 69.0 (±6.3); the “Kp (linear partition model, equation (S23))” value is 0.06 × 10^3. The “Kp (Literature)” value in data set [2] (ref [27]) was 0.66 × 10^3 and 0.66 (±0.23) × 10^3.
For the molecule omiganan, the “σ (lipid:solute ratio at membrane saturation)” value in data set [3] was 66.
